Patent US20170319519A1, “COMBINATION FOR THE TREATMENT OF CONDITIONS INVOLVING MUSCULAR PAIN” (Spherium Biomed S.L., priority 2014, published 2017)

System: patients with temporomandibular pain
Test: Global pain reduction in TMJ patients, visual analogic scale (VAS)
Format: in vivo
Conditions: n=3 per group, treated 3 times over 24 h, VAS 8 hours after the last administration
Method: In order to test the role of vitamin C in the formulation 7 groups of patients (n=3) with temporomandibular pain were administered the following combinations:
Patients were treated 3 times over 24 h, and were asked to evaluate their pain (localized and general) 8 hours after the last administration using a visual analogic scale (VAS) from 1 to 10, being 10 the most positive situation. The results of the two assessments were summed up to obtain the global pain score.

## O=C1O[C@H]([C@@H](O)CO)C(O)=C1O [Group 7, Vitamin C]
  effect on reduction of (global) pain, conclusions in words: worst values in all parameters
Listed as Vit C
  effect on reduction of (global) pain, conclusions in words: no effect
